IC50 data for 51 compounds are collected here from patent US8716493B2, “Multicyclic compounds and the use thereof” (Cephalon, Inc., priority 2000, dated 2014).

Structures can show the parent of a compound that is named as a salt.

The target of one assay is recombinant human PARP (Homo sapiens, UniProt P09874). Nature of the assay: Measurement of PARP enzymatic activity (transfer of radiolabeled ADP-ribose from NAD+ to protein acceptor). The class given is biochemical. As to conditions: PARP IC50 (nM), Table 2. The procedure: PARP activity was monitored by transfer of radiolabeled ADP-ribose units from [^32]NAD^+ to a protein acceptor such as histone or PARP itself. […] The reactions were initiated by the addition of 100 μM NAD^+ supplemented with 2 uCi [^32]NAD^+/mL and maintained at room temperature for 12 minutes. […] The amount of acid-insoluble radioactivity, corresponding to polyADP-ribosylated protein, was quantitated in a Wallac MicroBeta scintillation counter.
Chain of recombinant human PARP (P09874 whole entry): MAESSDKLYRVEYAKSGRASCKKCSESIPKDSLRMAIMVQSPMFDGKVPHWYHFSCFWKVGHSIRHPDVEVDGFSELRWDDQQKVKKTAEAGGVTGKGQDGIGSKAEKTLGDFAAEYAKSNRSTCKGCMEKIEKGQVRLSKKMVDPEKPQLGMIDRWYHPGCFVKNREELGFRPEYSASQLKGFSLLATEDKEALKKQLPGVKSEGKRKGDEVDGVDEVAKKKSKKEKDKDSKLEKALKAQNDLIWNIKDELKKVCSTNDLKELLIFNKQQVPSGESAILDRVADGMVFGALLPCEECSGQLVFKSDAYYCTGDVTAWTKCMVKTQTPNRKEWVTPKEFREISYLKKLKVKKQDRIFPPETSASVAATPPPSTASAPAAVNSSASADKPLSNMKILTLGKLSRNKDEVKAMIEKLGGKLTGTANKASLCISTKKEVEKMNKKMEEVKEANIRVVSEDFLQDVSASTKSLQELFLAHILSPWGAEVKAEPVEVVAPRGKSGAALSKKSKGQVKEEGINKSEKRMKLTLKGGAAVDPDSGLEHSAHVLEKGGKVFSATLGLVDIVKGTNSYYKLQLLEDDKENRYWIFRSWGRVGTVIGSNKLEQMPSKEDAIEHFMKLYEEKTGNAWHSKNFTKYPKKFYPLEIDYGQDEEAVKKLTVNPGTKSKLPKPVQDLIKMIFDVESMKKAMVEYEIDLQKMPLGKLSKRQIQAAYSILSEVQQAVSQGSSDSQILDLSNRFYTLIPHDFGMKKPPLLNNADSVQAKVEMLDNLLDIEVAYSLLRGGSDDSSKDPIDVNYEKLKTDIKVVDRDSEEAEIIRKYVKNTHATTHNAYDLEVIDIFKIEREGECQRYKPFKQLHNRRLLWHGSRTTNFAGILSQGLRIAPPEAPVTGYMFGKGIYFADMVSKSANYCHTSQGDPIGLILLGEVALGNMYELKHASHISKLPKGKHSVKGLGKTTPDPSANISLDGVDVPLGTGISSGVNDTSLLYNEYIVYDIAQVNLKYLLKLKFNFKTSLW
Single-point inhibition data were calculated by comparing PARP, VEGFR2, or MLK3 activity in the presence of inhibitor to activity in the presence of DMSO only. Inhibition curves for compounds were generated by plotting percent inhibition versus log10 of the concentration of compound. IC50 values were calculated by nonlinear regression using the sigmoidal dose-response (variable slope) equation in GraphPad Prism as follows: y=bottom+(top−bottom)/(1+10^(log IC50^−x)*Hillslope) where y is the % activity at a given concentration of compound, x is the logarithm of the concentration of compound, bottom is the % inhibition at the lowest compound concentration tested, and top is the % inhibition at the highest compound concentration examined. The values for bottom and top were fixed at 0 and 100, respectively. IC50 values were reported as the average of at least three separate determinations.
For some compounds, inhibiting data is presented as percent inhibition at a specified concentration. Compounds are tabulated together with compound number, substituents, and enzyme inhibition data.
For the compound `O=C(CBr)c1ccc2[nH]c3c4c(c5c(c3c2c1)C(=O)NC5=O)CCC4` [Compound 2e], the IC50 (as a rule, the concentration that gives 50% inhibition) was found to be 13 nM.

Take `O=C(NCc1nc(-c2ccc3[nH]c4c5c(c6c(c4c3c2)C(=O)NC6=O)CCC5)cs1)OCc1ccccc1` [Compound 3j]: the IC50 was found to be 20 nM.

Still in this assay, the particulars now being: PARP IC50 (nM), Table 8.
Turning to `O=C1NC(=O)c2c1c1c(c3[nH]c4ccc(OC(=O)N5CCOCC5)cc4c23)CCC1` [Compound 15a], the half-maximal inhibitory concentration (IC50) is 35 nM.

Consider `CN1CCN(C(=O)Oc2ccc3[nH]c4c5c(c6c(c4c3c2)C(=O)NC6=O)CCC5)CC1` [Compound 15b], for which the IC50 amounted to 51 nM.

The assay is the same for the next values; noted with them: PARP IC50, Table 18.
As for `O=C1NC(=O)c2c1c1c(c3[nH]c4ccc(OC(=O)N5CCCCC5)cc4c23)CCC1` [Compound 15p], the IC50 was 82 nM.

As for `O=C1NC(=O)c2c1c1c(c3[nH]c4ccc(OC(=O)N5CCOCCOCCOCC5)cc4c23)CCC1` [Compound 15o], the IC50 was 76 nM.

The assay is the same for the next values; noted with them: Table 1; read-out: PARP IC50.
Regarding `NCCCC[C@H](N)C(=O)n1c2ccccc2c2c3c(c4c(c21)CCC4)C(=O)NC3` [Compound 1v, 11-L-Lysyl-5,7,8,9,10,11-hexahydrocyclopent[a]pyrrolo[3,4-c]carbazole-7(6H)-one dihydrochloride], the IC50 is 1400 nM.

The assay is the same for the next values; noted with them: Table 2; read-out: PARP IC50.
`O=C(CCC(=O)c1ccc2[nH]c3c4c(c5c(c3c2c1)C(=O)NC5=O)CCC4)NCCO` [Compound 4g]: the IC50 came to 9 nM.

As for `O=C1NC(=O)c2c1c1c(c3[nH]c4ccc(S(=O)(=O)O)cc4c23)CCC1` [Compound 2ae], the IC50 amounted to 8 nM.

On to `CC(C)(C)OC(=O)NCC(=O)NCc1ccc2[nH]c3c4c(c5c(c3c2c1)C(=O)NC5=O)CCC4` [Compound 2v, 3-(N-(2-(N-Boc-amino)acetyl)aminomethyl)-5,7,8,9,10,11-hexahydrocyclopent[a]pyrrolo[3,4-c]carbazole-5(6H), 7-dione], for which the IC50 came out at 33 nM.

Take `CC(=O)NCc1ccc2[nH]c3c4c(c5c(c3c2c1)C(=O)NC5=O)CCC4` [Compound 2r, 3-(Acetylaminomethyl)-5,7,8,9,10,11-hexahydrocyclopent[a]pyrrolo[3,4-c]carbazole-5(6H), 7-dione]: the IC50 is 13 nM.

Turning to `CN(CC1CCNCC1)C(=O)c1ccc2[nH]c3c4c(c5c(c3c2c1)C(=O)NC5=O)CCC4` [Compound 2cy], the IC50 amounted to 23 nM.

Consider `O=C(NCCN1CCCCC1)c1ccc2[nH]c3c4c(c5c(c3c2c1)C(=O)NC5=O)CCC4` [Compound 2cm], for which the IC50 came out at 148 nM.

As for `CCCC(=O)NCc1nc(-c2ccc3[nH]c4c5c(c6c(c4c3c2)C(=O)NC6=O)CCC5)cs1` [Compound 3u], the IC50 worked out at 42 nM.

Turning to `CCNCc1ccc2[nH]c3c4c(c5c(c3c2c1)C(=O)NC5=O)CCC4` [Compound 2bk], the IC50 came to 32 nM.

Take `O=C(NCC1CCCO1)c1ccc2[nH]c3c4c(c5c(c3c2c1)C(=O)NC5=O)CCC4` (stereo not drawn) [Compound 2cr]: the IC50 is 14 nM.

Take `CN(C)CCCNC(=O)c1ccc2[nH]c3c4c(c5c(c3c2c1)C(=O)NC5=O)CCC4` [Compound 2ch]: the IC50 stood at 33 nM.

On to `O=C1NC(=O)c2c1c1c(c3[nH]c4ccc(CNS(=O)(=O)c5ccccc5)cc4c23)CCC1` [Compound 2cd], for which the IC50 came out at 39 nM.

In the case of `CCCCC(=O)NCc1nc(-c2ccc3[nH]c4c5c(c6c(c4c3c2)C(=O)NC6=O)CCC5)cs1` [Compound 3v], the concentration for half-maximal inhibition (IC50) turned out to be 56 nM.

As to `O=C(O)CCCC(=O)c1ccc2[nH]c3c4c(c5c(c3c2c1)C(=O)NC5=O)CCC4` [Compound 4n], the IC50 turned out to be 2 nM.

As to `CC(C)NCc1ccc2[nH]c3c4c(c5c(c3c2c1)C(=O)NC5=O)CCC4` [Compound 2br], the IC50 came to 25 nM.

With `CC(C)(C)OC(=O)NCc1ccc2[nH]c3c4c(c5c(c3c2c1)C(=O)NC5=O)CCC4` [Compound 2ad, 3-(N-Boc-aminomethyl)-5,7,8,9,10,11-hexahydrocyclopent[a]pyrrolo[3,4-c]carbazole-5(6H), 7-dione], the IC50 stood at 93 nM.

Take `CC(C)(C)OC(=O)N1CCN(C(=O)CCC(=O)c2ccc3[nH]c4c5c(c6c(c4c3c2)C(=O)NC6=O)CCC5)CC1` [Compound 4q]: the IC50 is 10 nM.

`O=C(O)CCC(=O)NCc1ccc2[nH]c3c4c(c5c(c3c2c1)C(=O)NC5=O)CCC4` [Compound 2ab, 3-(N-(3-(Carboxy)propanoyl)aminomethyl)-5,7,8,9,10,11-hexahydrocyclopent[a]-pyrrolo[3,4-c]carbazole-5(6H), 7-dione]: the IC50 was 50 nM.

Consider `O=C(NCCc1ccccn1)c1ccc2[nH]c3c4c(c5c(c3c2c1)C(=O)NC5=O)CCC4` [Compound 2cv], for which the IC50 is 18 nM.

With `CCC(=O)NCc1ccc2[nH]c3c4c(c5c(c3c2c1)C(=O)NC5=O)CCC4` [Compound 2s, 3-(Propanoylaminomethyl)-5,7,8,9,10,11-hexahydrocyclopent[a]pyrrolo[3,4-c]carbazole-5(6H), 7-dione], the 50% inhibitory concentration (IC50) was determined as 28 nM.

Take `O=C(CCC(=O)N1CCCC1)c1ccc2[nH]c3c4c(c5c(c3c2c1)C(=O)NC5=O)CCC4` [Compound 4t]: the IC50 worked out at 16 nM.

Turning to `O=C1NC(=O)c2c1c1c(c3[nH]c4ccc(C(=O)N(CCO)CCO)cc4c23)CCC1` [Compound 2dc], the IC50 worked out at 18 nM.

For the compound `O=C(CCC(=O)N1CCCC1C(=O)O)c1ccc2[nH]c3c4c(c5c(c3c2c1)C(=O)NC5=O)CCC4` (stereo not drawn) [Compound 4j], the IC50 amounted to 2 nM.

For `CC(C)(C)OC(=O)N[C@@H](CCCNc1nc(-c2ccc3[nH]c4c5c(c6c(c4c3c2)C(=O)NC6=O)CCC5)cs1)C(=O)OC(C)(C)C` [Compound 3e], the IC50 turned out to be 46 nM.

For `CC(=O)Oc1ccc2[nH]c3c4c(c5c(c3c2c1)C(=O)NC5=O)CCC4` [Compound 2au], the half-inhibitory concentration (IC50) is 33 nM.

In the case of `O=C1NC(=O)c2c1c1c(c3[nH]c4ccc(C(=O)N5CCOCC5)cc4c23)CCC1` [Compound 2cp], the IC50 was determined as 12 nM.

Turning to `O=C1CCC(c2ccc3[nH]c4c5c(c6c(c4c3c2)C(=O)NC6=O)CCC5)=NN1` [Compound 4l], the IC50 was 17 nM.

For `O=C(NCCN1CCOCC1)c1ccc2[nH]c3c4c(c5c(c3c2c1)C(=O)NC5=O)CCC4` [Compound 2cn], the IC50 is 26 nM.

`CC(C)(C)OC(=O)[C@@H]1CCCN1C(=O)CCC(=O)c1ccc2[nH]c3c4c(c5c(c3c2c1)C(=O)NC5=O)CCC4` [Compound 4h]: the IC50 worked out at 7 nM.

Turning to `O=C(CCC(=O)N1CCNCC1)c1ccc2[nH]c3c4c(c5c(c3c2c1)C(=O)NC5=O)CCC4` [Compound 4r], the IC50 is 15 nM.

As to `NCc1nc(-c2ccc3[nH]c4c5c(c6c(c4c3c2)C(=O)NC6=O)CCC5)cs1` [Compound 3k], the IC50 came out at 42 nM.

As to `O=C(CN1CCCC1C(=O)O)c1ccc2[nH]c3c4c(c5c(c3c2c1)C(=O)NC5=O)CCC4` (stereo not drawn) [Compound 4c], the IC50 came out at 7 nM.

As to `NCc1ccc2[nH]c3c4c(c5c(c3c2c1)C(=O)NC5=O)CCC4` [Compound 2p, 3-(Aminomethyl)-5,7,8,9,10,11-hexahydrocyclopent[a]pyrrolo[3,4-c]carbazole-5(6H), 7-dione hydrochloride], the IC50 stood at 13 nM.

`CC(C)(C)OC(=O)NCCC(=O)NCc1ccc2[nH]c3c4c(c5c(c3c2c1)C(=O)NC5=O)CCC4` [Compound 2ca]: the IC50 is 95 nM.

For `Cc1sc(N)nc1-c1ccc2[nH]c3c4c(c5c(c3c2c1)C(=O)NC5=O)CCC4` [Compound 3d], the IC50 worked out at 50 nM.

Still in this assay, the particulars now being: Table 3; read-out: PARP IC50.
For the compound `N#Cc1ccc2c(c1)c1c3c(c4c(c1n2C(=O)[C@@H](N)CCCCN)CCC4)C(=O)NC3` [Compound 6j, 3-Cyano-11-L-lysyl-5,7,8,9,10,11-hexahydrocyclopent[a]pyrrolo[3,4-c]carbazole-7(6H)-one dihydrochloride], the half-inhibitory concentration (IC50) was 460 nM.

The same assay, now with this note: Table 4; read-out: PARP IC50.
Turning to `O=c1[nH][nH]c(=O)c2c1c1c(c3[nH]ccc32)CCC1` [Compound 8e, 1,6,7,8-Tetrahydrocyclopent[g]indole-4,5-dicarboxylate hydrazide], the IC50 amounted to 1820 nM.

As for `O=C1NC(=O)c2c1c1c(c3[nH]cc(Br)c23)CCC1` [Compound 8c, 3-Bromo-1,6,7,8-tetrahydrocyclopent[g]indole-4,5-dicarboxylate imide], the IC50 was 5 nM.

Staying with this assay, now noted: Table 18; read-out: PARP IC50.
On to `COc1cnc2[nH]c3c4c(c5c(c3c2c1)C(=O)NC5=O)CCC4` [Compound 8w], for which the IC50 was 4 nM.

For the compound `COc1c(Br)ccc2[nH]c3c4c(c5c(c3c12)C(=O)NC5=O)CCC4` [Compound 14m], the IC50 came to 67 nM.

Take `COc1c(C#N)ccc2[nH]c3c4c(c5c(c3c12)C(=O)NC5=O)CCC4` [Compound 14o]: the IC50 was 7 nM.

As for `O=C1NC(=O)c2c1c1c(c3[nH]c4nc(O)c(Cl)cc4c23)CCC1` [Compound 8s], the IC50 was found to be 14 nM.

As for `CO[n+]1cccc2c3c4c(c5c(c3[nH]c21)CCC5)C(=O)NC4=O` [Compound 8o], the IC50 was found to be 4 nM.

For `COc1c(I)ccc2[nH]c3c4c(c5c(c3c12)C(=O)NC5=O)CCC4` [Compound 14n], the IC50 was determined as 126 nM.

As to `COCCOc1ccnc2[nH]c3c4c(c5c(c3c12)C(=O)NC5=O)CCC4` [Compound 8aa], the IC50 was 10 nM.
